Where “and” joins values, the source holds several entries; their conditions need not be identical. Equal entries are not always repeated.
Test system: K12877-001-R-J1-PDC complex spheroid viability
Assay: Anticancer human tumor K12877-001-R-J1-PDC patient-derived lung adenocarcinoma cell line growth inhibition [RAS]
Conditions: for viability, T/C: stronger effect = lower value
From the text: RAS pathway inhibitors in Combinations in Complex Spheroids
A high-throughput screen of multi-cell type tumor spheroids was designed to identify active combinations of RAS pathway inhibitors and targeted small molecules. Complex spheroids include a stromal component modeled by human endothelial cells (HUVEC) and fibroblasts modeled by human mesenchymal stem cells (MSCs). The concentration ranges selected for each drug and investigational agent were based upon clinically achievable concentrations if the clinical Cmax of the agent was known.
Compounds. The drugs and investigational agents: abemaciclib (NSC768073), cobimetinib (NSC768068), divarasib (GDC6063, NSC841802), docetaxel (NSC628503), GDC-1971 (RLY-1971, NSC841576), gemcitabine (NSC613327), inavolisib (NSC800729), ipatasertib (NSC767898), KB-0742 (NSC834161), MRTX-1133 (NSC836407), osimertinib (NSC779217), RMC-4630 (NSC839698), RMC-6236 (NSC851965), RMC-6291 (NSC852671), Ro-3306 (NSC812927), sapanisertib (NSC764658), SN-38 (NSC673596), staurosporine (NSC755774), SY5609 (NSC837396), and tovorafenib (DAY101, NSC766906), were obtained from the National Cancer Institute (NCI) Developmental Therapeutics Program Chemical Repository. The FDA-approved anticancer drug set is available from the NCI Developmental Therapeutics Program. […] The stock solutions were prepared in dimethyl sulfoxide (DMSO, Sigma-Aldrich, St. Louis, MO, cat. D2650) at 800-fold the tested concentration and stored at -70 degrees C prior to their use. All drugs and investigational agents were tested over a range starting from a high concentration at or near the clinical Cmax and decreasing in half-log increments. If the clinical Cmax for an agent had not been determined, the highest concentration tested was 10 microM.
Cell Culture. All cells were maintained in an incubator at 37 degrees C and 5% CO2 with 95% humidity. The PDC lines were cultured according to standard operating procedures established by the NCI PDMR. All PDCs were thawed and cultured in Matrigel-coated flasks prepared with a working solution of 1X Ham's F-12 nutrient mix, without supplementation (Invitrogen, Waltham, MA, cat. 11765054), 100 U/mL penicillin-streptomycin (Invitrogen, cat. 15140122), and 2.5% Matrigel (Corning Inc., Corning, NY, cat. 354248) for the first three passages. The 362531-283-R-J2-PDC and 782815-120-R-J1-PDC lines were cultured in 6C/Colon 1B media, which includes advanced DMEM/F-12 (Thermo Fisher Scientific, cat. 12634028), 10 mM HEPES (Thermo Fisher Scientific, cat. 15630080), 1X GlutaMAX supplement (Thermo Fisher Scientific, cat. 35050061), 0.1 mg/mL primocin (InvivoGen, San Diego, CA, cat. ant-pm-2), 10% defined fetal bovine serum, heat inactivated (HyClone Laboratories Inc., Logan, UT, cat. SH30070.03HI), 50% L-WRN conditioned media (ATCC, cat. CRL-3276), 1.25 mM N-Acetyl-L-cysteine (Sigma-Aldrich, cat. A9165), 10 mM nicotinamide (Sigma-Aldrich, cat. N0636), 1X B-27 supplement (Thermo Fisher Scientific, cat. 17504044), 1X N-2 supplement (Thermo Fisher Scientific, cat. 17502048), 50 ng/mL human EGF (Thermo Fisher Scientific, cat. PHG0311), and 10 microM Y-27632 dihydrochloride (Tocris Bioscience, cat. 1254). The K12877-001-R-J1-PDC line was cultured in 6I media, which includes all 6C/Colon 1B media plus 10 ng/mL human FGF-10 (PeproTech, cat. 100-26), 1 ng/mL human FGF-2 (PeproTech, cat. 100-18B), 1 µM prostaglandin E2 (Tocris Bioscience, cat. 2296), […] hydrocortisone (Sigma-Aldrich, cat. H4001), and […] bovine insulin (Sigma-Aldrich, cat. I6634). The K86415-001-R-J1-PDC line was cultured in 6D media, which includes all 6C/Colon 1B media components minus the L-WRN conditioned media. The 485176-168-R4-J1-PDC was cultured in PANC media, which includes all 6C/Colon 1B media plus 100 ng/mL human FGF-10 (PeproTech, cat. 100-26), 500 nM SB-431542 (Selleckchem, cat. S1067), and 10 nM gastrin (Tocris Bioscience, cat. 3006). […]
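Further: spheroids exposed to agents for one week before readout.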

**Q.** How did the viability, T/C (compound 0.00316 µM) turn out when C=CC(=O)N1CCN(c2nc(OCC3CCCN3C)nc3c(F)c(-c4nc(N)cc(C)c4C(F)(F)F)c(Cl)cc23)C(C)C1 (stereo unspecified) was run?
**A.** The viability, T/C was 99.2% [middle of 12 runs].

**Q.** And the viability, T/C (compound 0.1 µM)?
**A.** Its viability, T/C is 87.8% [middle of 12 runs].

**Q.** What about the viability, T/C (compound 0.316 µM) of the same compound?
**A.** The viability, T/C was 86% [middle of 12 runs].

**Q.** What about the IC50 (compound alone, run of 09/09/2024) of the same compound?
**A.** Its IC50 is over 1000 nM.

**Q.** And the IC50 (curve of compound)?
**A.** The IC50 was over 1000 nM.

**Q.** For C=CC(=O)Nc1cc(Nc2nccc(-c3cn(C)c4ccccc34)n2)c(OC)cc1N(C)CCN(C)C, which viability, T/C (compound 0.00316 µM) is on record?
**A.** Its viability, T/C is 108% [middle of 4 runs].

**Q.** What about the viability, T/C (compound 0.01 µM) of the same compound?
**A.** The viability, T/C was 106% [middle of 4 runs].

**Q.** What about the viability, T/C (compound 0.0316 µM) of the same compound?
**A.** Its viability, T/C is 106% [middle of 4 runs].

**Q.** And the viability, T/C (compound 0.1 µM)?
**A.** Its viability, T/C is 101% [middle of 4 runs].

**Q.** And the viability, T/C (compound 0.316 µM)?
**A.** Its viability, T/C is 103% [middle of 4 runs].

**Q.** What about the viability, T/C (compound 1 µM) of the same compound?
**A.** Its viability, T/C is 90.8% [middle of 4 runs].

**Q.** And the IC50 (curve of compound)?
**A.** The IC50 was over 1000 nM.

**Q.** What does the source list for CC(C)n1nc(-c2ccc3oc(N)nc3c2)c2c(N)ncnc21?
**A.** viability, T/C (compound 0.000316 µM): 105% [middle of 4 runs]; viability, T/C (compound 0.00316 µM): 98.2% [middle of 4 runs]; viability, T/C (compound 0.0316 µM): 41.3% [middle of 4 runs]; viability, T/C (compound 0.1 µM): 15.5% and 26.6% (2×) and 20%; IC50 (curve of compound): 25.1 nM [middle of 4 runs]

**Q.** Which viability, T/C (compound 0.000949 µM) does the source give for CC1(C)CCC(Nc2ncc(C(F)(F)F)c(-c3c[nH]c4c(P(C)(C)=O)c(C#N)ccc34)n2)CN1 (stereo unspecified) here?
**A.** The viability, T/C was 102% [middle of 4 runs].

**Q.** And the viability, T/C (compound 0.03 µM)?
**A.** Its viability, T/C is 44.5% [middle of 4 runs].

**Q.** What about the viability, T/C (compound 0.0949 µM) of the same compound?
**A.** Its viability, T/C is 33% [middle of 4 runs].

**Q.** And the viability, T/C (compound 0.3 µM)?
**A.** The viability, T/C was 28.3% [middle of 4 runs].

**Q.** What about the IC50 (curve of compound) of the same compound?
**A.** Its IC50 is 27.1 nM [middle of 4 runs].

**Q.** With CCN1CCN(Cc2ccc(Nc3ncc(F)c(-c4cc(F)c5nc(C)n(C(C)C)c5c4)n3)nc2)CC1 as the compound, how does the viability, T/C (compound 0.00316 µM) read?
**A.** Its viability, T/C is 104% (2×) and 108% and 116%.

**Q.** What about the viability, T/C (compound 0.01 µM) of the same compound?
**A.** The viability, T/C was 96.5% [middle of 4 runs].

**Q.** And the viability, T/C (compound 0.0316 µM)?
**A.** Its viability, T/C is 100% [middle of 4 runs].

**Q.** What about the viability, T/C (compound 0.1 µM) of the same compound?
**A.** The viability, T/C was 103% [middle of 4 runs].

**Q.** What about the viability, T/C (compound 0.316 µM) of the same compound?
**A.** The viability, T/C was 123% [middle of 4 runs].

**Q.** What about the viability, T/C (compound 1 µM) of the same compound?
**A.** Its viability, T/C is 96.6% [middle of 4 runs].

**Q.** And the IC50 (curve of compound)?
**A.** Its IC50 is over 1000 nM.

**Q.** How did the viability, T/C (compound 0.000949 µM) turn out when CCc1c2c(nc3ccc(O)cc13)-c1cc3c(c(=O)n1C2)COC(=O)[C@]3(O)CC was run?
**A.** Its viability, T/C is 99.2% [middle of 4 runs].

**Q.** What about the viability, T/C (compound 0.00949 µM) of the same compound?
**A.** The viability, T/C was 14% [middle of 4 runs].

**Q.** What about the viability, T/C (compound 0.03 µM) of the same compound?
**A.** Its viability, T/C is 5.09% [middle of 4 runs].

**Q.** And the viability, T/C (compound 0.0949 µM)?
**A.** Its viability, T/C is 3.24% [middle of 4 runs].

**Q.** What about the viability, T/C (compound 0.3 µM) of the same compound?
**A.** Its viability, T/C is 1.19% [middle of 4 runs].

**Q.** What about the IC50 (curve of compound) of the same compound?
**A.** The IC50 was 5.02 nM [middle of 4 runs].

**Q.** With CCn1c(-c2cc(N3CCN(C)CC3)cnc2C(C)OC)c2c3cc(ccc31)-c1csc(n1)CC(NC(=O)C1CC1C)C(=O)N1CCCC(N1)C(=O)OCC(C)(C)C2 (stereo unspecified) as the compound, how does the viability, T/C (compound 0.000949 µM) read?
**A.** The viability, T/C was 81.8% [middle of 8 runs].

**Q.** What about the viability, T/C (compound 0.003 µM) of the same compound?
**A.** Its viability, T/C is 72.1% [middle of 8 runs].

**Q.** What about the viability, T/C (compound 0.00949 µM) of the same compound?
**A.** Its viability, T/C is 67.8% [middle of 8 runs].

**Q.** And the viability, T/C (compound 0.0949 µM)?
**A.** The viability, T/C was 107% [middle of 8 runs].

**Q.** And the viability, T/C (compound 0.3 µM)?
**A.** Its viability, T/C is 97.1% [middle of 7 runs].

**Q.** What about the IC50 (compound alone, run of 08/26/2024) of the same compound?
**A.** The IC50 was over 300 nM.

**Q.** How did the viability, T/C (compound 0.000949 µM) turn out when CCn1c(-c2cccnc2C(C)OC)c2c3cc(ccc31)N1CCOC(CC(NC(=O)C(C(C)C)N(C)C(=O)C3(F)CCN(C(=O)C#CC(C)(C)N(C)C)CC3)C(=O)N3CCCC(N3)C(=O)OCC(C)(C)C2)C1 (stereo unspecified) was run?
**A.** The viability, T/C was 86.3% [middle of 8 runs].

**Q.** And the viability, T/C (compound 0.003 µM)?
**A.** Its viability, T/C is 81.2% [middle of 8 runs].

**Q.** And the viability, T/C (compound 0.00949 µM)?
**A.** The viability, T/C was 79.2% [middle of 8 runs].

**Q.** And the viability, T/C (compound 0.03 µM)?
**A.** Its viability, T/C is 79% [middle of 8 runs].

**Q.** And the viability, T/C (compound 0.0949 µM)?
**A.** Its viability, T/C is 72.1% [middle of 8 runs].

**Q.** What about the viability, T/C (compound 0.3 µM) of the same compound?
**A.** The viability, T/C was 72.7% [middle of 8 runs].

**Q.** What about the IC50 (compound alone, run of 08/20/2024) of the same compound?
**A.** Its IC50 is over 300 nM.

**Q.** For Nc1ccn(C2OC(CO)C(O)C2(F)F)c(=O)n1 (stereo unspecified), which viability, T/C (compound 0.00316 µM) is on record?
**A.** Its viability, T/C is 105% [middle of 4 runs].

**Q.** What about the viability, T/C (compound 0.01 µM) of the same compound?
**A.** Its viability, T/C is 90.8% [middle of 4 runs].

**Q.** What about the viability, T/C (compound 0.0316 µM) of the same compound?
**A.** Its viability, T/C is 7.36% [middle of 4 runs].

**Q.** And the viability, T/C (compound 0.1 µM)?
**A.** Its viability, T/C is 5.6% [middle of 4 runs].

**Q.** What about the viability, T/C (compound 0.316 µM) of the same compound?
**A.** The viability, T/C was 5.52% [middle of 4 runs].

**Q.** What about the viability, T/C (compound 1 µM) of the same compound?
**A.** The viability, T/C was 5.95% [middle of 4 runs].

**Q.** What about the IC50 (curve of compound) of the same compound?
**A.** The IC50 was 17.6 nM [middle of 4 runs].

**Q.** Which viability, T/C (compound 0.00316 µM) does the source give for O=C(c1ccc(F)c(F)c1Nc1ccc(I)cc1F)N1CC(O)([C@@H]2CCCCN2)C1 here?
**A.** The viability, T/C was 109% [middle of 4 runs].

**Q.** What about the viability, T/C (compound 0.01 µM) of the same compound?
**A.** Its viability, T/C is 93.5% [middle of 4 runs].

**Q.** What about the viability, T/C (compound 0.0316 µM) of the same compound?
**A.** The viability, T/C was 94.9% [middle of 4 runs].

**Q.** What about the viability, T/C (compound 0.1 µM) of the same compound?
**A.** Its viability, T/C is 81.3% [middle of 4 runs].

**Q.** And the viability, T/C (compound 0.316 µM)?
**A.** The viability, T/C was 81.6% [middle of 4 runs].

**Q.** What about the IC50 (curve of compound) of the same compound?
**A.** Its IC50 is > 1000 nM and 496 nM.

Source: PubChem BioAssay AID2060894 (Molecular Pharmacology Branch, DTP, NCI, 2025)
